In brackets after ≈: the same amount, converted by molar mass.

A word on the solubility (kinetic): it is the concentration staying in solution when a stock, usually in DMSO, is diluted into the medium.

The conditions of this series: buffer; pH 7.4; 200.0 µM.
Turning to `O=[N+]([O-])c1cc(Cl)ccc1Sc1ccccn1`, the kinetic solubility is 23.3 µg/mL (≈ 87.4 µM).

Consider `COc1cc(OC)cc(C(=O)NCCc2cnc[nH]2)c1`, for which the solubility (kinetic) was > 41.3 µg/mL.

On to `Cc1cccc2cc(CN(Cc3ccco3)C(=O)c3ccco3)c(=O)[nH]c12`, for which the solubility (kinetic) was 0.8 µg/mL (≈ 2.21 µM).

For the molecule `O=C(CSc1nccc(=O)[nH]1)c1c[nH]c2ccccc12`, the solubility (kinetic) is > 42.8 µg/mL.

Molecule `Nc1ccc2nc(-c3ccccc3)cnc2c1` had a solubility (kinetic) of 26.6 µg/mL (≈ 120 µM).

In the case of `Cc1ccc(CNC(=O)CN2C(=O)NC3(CCCC3)C2=O)cc1`, the solubility (kinetic) was determined as 43.6 µg/mL (≈ 138 µM).

The molecule `Cn1c2ccc(F)cc2c2ncn(Cc3ccccn3)c(=O)c21` returned a kinetic solubility of 7.9 µg/mL (≈ 25.6 µM).

Consider `O=C1Nc2ccccc2N=C(c2ccccc2)c2ccccc21`, for which the kinetic solubility is 0.9 µg/mL (≈ 3.02 µM).

For the molecule `O=C1NC2=C(C(=O)CCC2)C(c2ccccc2)N1` (stereo not drawn), the solubility (kinetic) is > 36.3 µg/mL.

As to `COc1ccc(NC(=O)CS(=O)(=O)c2ccccc2)cc1`, the kinetic solubility is > 45.8 µg/mL.

`Cc1cc(C)c(S(=O)(=O)Nc2ncccc2C)c(C)c1` came in with a solubility (kinetic) of 2.1 µg/mL (≈ 7.23 µM).

On to `CCNc1nc(N)c(C(=O)C23CC4CC(CC(C4)C2)C3)s1`, for which the solubility (kinetic) turned out to be 2 µg/mL (≈ 6.55 µM).

On to `Cc1ccc(N2CC(C(=O)NC3CC3)CC2=O)cc1Cl` (stereo not drawn), for which the kinetic solubility is > 43.9 µg/mL.

With `O=C(COc1ccccc1[N+](=O)[O-])Nc1cccnc1`, the kinetic solubility was 17.3 µg/mL (≈ 63.3 µM).

Regarding `CC(=NCC1CCCO1)c1c(O)n(C2CCCCC2)c(=O)[nH]c1=O` (stereo not drawn), the kinetic solubility is > 50.3 µg/mL.

In turn, `Nc1cc(=O)[nH]c(SCC(=O)Nc2cc([N+](=O)[O-])ccc2Cl)n1` returned a kinetic solubility of 4.4 µg/mL (≈ 12.4 µM).

`COc1cc(C2/C(=C(\O)c3ccc4c(c3)OCCO4)C(=O)C(=O)N2Cc2ccco2)ccc1O` (stereo not drawn) gave a solubility (kinetic) of 66.7 µg/mL (≈ 144 µM).

For the molecule `Cc1ccc(-c2noc(CN(C)C(=O)c3ccoc3C)n2)cc1`, the kinetic solubility turned out to be 34.4 µg/mL (≈ 110 µM).

Regarding `O=C(/C=C/c1ccccc1)Nc1cc(NC(=O)/C=C/c2ccccc2)cc(C(=O)O)c1`, the kinetic solubility was 52.7 µg/mL (≈ 128 µM).

On to `Cc1ccc2cccc(OCc3cccc([N+](=O)[O-])c3)c2n1`, for which the kinetic solubility was determined as 23.6 µg/mL (≈ 80.2 µM).

`COc1ccc(-c2noc(=O)n2Cc2ccc(F)cc2Cl)cc1` registered a kinetic solubility of 3.5 µg/mL (≈ 10.5 µM).

For `O=C(Nc1ccc(F)cc1)c1cncs1`, the kinetic solubility was > 33.3 µg/mL.

As to `COC(=O)c1cn(C(=O)c2cc(Cl)ccc2Cl)c2ccccc12`, the solubility (kinetic) was < 0.7 µg/mL.

For `COc1ccc2[nH]c(C(=O)N3CCN(Cc4ccccc4)CC3)cc2c1OC`, the kinetic solubility stood at 51.8 µg/mL (≈ 137 µM).

For `COCc1cc(C)nc(SCC(=O)Oc2ccccc2)c1C#N`, the kinetic solubility came to 29.1 µg/mL (≈ 88.6 µM).

`Cc1cc2cc(CNC(=O)COc3ccccc3)ccc2n1C` registered a solubility (kinetic) of 5.2 µg/mL (≈ 16.9 µM).

`COc1cccc(/C=C/C(=O)NCC2CCCCC2)c1`: the solubility (kinetic) was 16.4 µg/mL (≈ 60 µM).

On to `O=C(COC(=O)c1ccccc1OCc1ccccc1Cl)NCC1CCCO1` (stereo not drawn), for which the kinetic solubility is > 60.6 µg/mL.

For `Cc1nc2ccccc2c(=O)n1-c1ccc(Cl)c(Cl)c1`, the kinetic solubility came to 44 µg/mL (≈ 144 µM).

Turning to `O=C(COc1ccccc1[N+](=O)[O-])N1CCCc2ccccc21`, the kinetic solubility was > 46.8 µg/mL.

In turn, `O=S(=O)(c1ccc(F)c(F)c1)N1CCN(c2ncccn2)CC1` came in with a kinetic solubility of 2.3 µg/mL (≈ 6.76 µM).

`Cc1cc(Br)ccc1S(=O)(=O)n1ccnc1C`: the solubility (kinetic) was > 47.3 µg/mL.

The molecule `COc1ccc2c(c1)c(-c1csc(N)n1)c(C)n2C` yielded a kinetic solubility of 27.7 µg/mL (≈ 101 µM).

In the case of `O=C(NC1CCCC1)C1CCCN(S(=O)(=O)c2ccc(F)cc2)C1` (stereo not drawn), the solubility (kinetic) is 3.4 µg/mL (≈ 9.59 µM).

On to `COc1ccc(S(=O)(=O)NCc2ccccn2)c(C)c1C`, for which the solubility (kinetic) was 32.8 µg/mL (≈ 107 µM).

On to `O=[N+]([O-])c1ccc(Oc2ccc(OCc3ccccc3)cc2)nc1`, for which the solubility (kinetic) was < 0.3 µg/mL.

In turn, `CC1CCCN(S(=O)(=O)c2cccc3nonc23)C1` (stereo not drawn) yielded a kinetic solubility of 13.2 µg/mL (≈ 46.9 µM).

`O=c1c2c([N+](=O)[O-])cc([N+](=O)[O-])cc2sn1Cc1ccccc1` showed a kinetic solubility of 17.2 µg/mL (≈ 51.9 µM).

On to `O=C(O)c1cc(-c2ccccc2)nc(-c2ccccc2)c1`, for which the solubility (kinetic) was > 41.3 µg/mL.

In the case of `O=C(c1ccc([N+](=O)[O-])cc1)N1CCN(C(=O)c2cccnc2)CC1`, the solubility (kinetic) is > 51.1 µg/mL.

The molecule `COc1ccccc1/C=C/C(=O)Nc1ccc(N2CCOCC2)cc1` yielded a kinetic solubility of 1 µg/mL (≈ 2.96 µM).

Consider `COc1ccccc1NC(=O)NCCN1CCCCC1`, for which the kinetic solubility is > 41.6 µg/mL.

As for `O=c1[nH]c2ccccc2nc1Cc1ccc([N+](=O)[O-])cc1`, the kinetic solubility came out at 3.6 µg/mL (≈ 12.8 µM).

Consider `CCOC(=O)C1CCN(CCC(=O)Nc2ccc(C)cc2)CC1`, for which the kinetic solubility is > 47.8 µg/mL.

The molecule `COc1cccc(NC(=S)NC(=O)Cc2ccccc2)c1` gave a kinetic solubility of 16 µg/mL (≈ 53.3 µM).

Turning to `CN(C)c1c(N)c(=O)oc2ccccc12`, the kinetic solubility was found to be 27.3 µg/mL (≈ 134 µM).

In turn, `COc1ccc(CNC(=O)CCc2c[nH]c3ccccc23)cc1` gave a kinetic solubility of 24.6 µg/mL (≈ 79.8 µM).

Turning to `O=C(NCCCN1CCOCC1)C(=O)NCc1ccc(Cl)cc1`, the kinetic solubility was > 51 µg/mL.

Take `O=C(O)c1ccccc1-c1ccccc1C(=O)Nc1ccccc1-c1ccccc1`: the kinetic solubility was > 59 µg/mL.

`O=C(COC(=O)c1cccc(Cl)c1)NC(=O)NCc1ccccc1`: the kinetic solubility was found to be 3.6 µg/mL (≈ 10.4 µM).

For the molecule `CCOc1ccc2c(c1)c1nc3ccccc3nc1n2C`, the kinetic solubility is < 0.2 µg/mL.

For the molecule `Cc1cccc(NC(=O)CCN2CCCCC2)c1.Cl`, the solubility (kinetic) is > 42.4 µg/mL.

`CCCNc1ncnc2onc(C)c12`: the kinetic solubility was 22.5 µg/mL (≈ 117 µM).

Consider `O=C(Nc1ccc(F)cc1)Nc1ccccc1N1CCCCC1`, for which the kinetic solubility was 0.3 µg/mL (≈ 0.957 µM).

Take `COc1ccc(NC(=O)C2CCCN(c3cnccn3)C2)cc1` (stereo not drawn): the kinetic solubility was > 46.9 µg/mL.

As for `O=C(NC(Cc1ccccc1)C(=O)O)c1cccnc1Cl` (stereo not drawn), the solubility (kinetic) came out at 35 µg/mL (≈ 115 µM).

On to `Cc1onc(-c2ccccc2)c1C(=O)N1CCCCCC1`, for which the kinetic solubility was > 42.7 µg/mL.

With `O=c1[nH]c(-[n+]2ccccc2)c(/C=N/N=C(\[O-])c2ccccc2)s1`, the kinetic solubility was > 48.7 µg/mL.

Molecule `Cc1ccc2nc(-c3cc(-c4ccccc4)no3)cn2c1` came in with a kinetic solubility of 0.3 µg/mL (≈ 1.09 µM).

As to `O=C(CN1C(=O)NC2NC(=O)NC21)N/N=C/c1ccc(F)cc1` (stereo not drawn), the solubility (kinetic) is > 48 µg/mL.

As to `COc1ccc(/C=C/C(=O)NCCN2CCOCC2)cc1OC`, the solubility (kinetic) was > 48.1 µg/mL.

Turning to `C#CC1CCCCC1NC(=O)Nc1cnccc1C(F)(F)F` (stereo not drawn), the solubility (kinetic) worked out at 43.2 µg/mL (≈ 139 µM).

As for `COc1ccc(CN(C)C(=O)c2[nH]c(C)c(C(C)=O)c2C)cc1F`, the solubility (kinetic) was > 49.9 µg/mL.

`CCN(C(=O)COC(=O)c1ccc(O)cc1)c1cccc2ccccc12`: the kinetic solubility worked out at 24.6 µg/mL (≈ 70.4 µM).

`CC(NC(=O)CCC(=O)N1CCCCCC1)c1ccccc1` (stereo not drawn): the kinetic solubility is > 45.4 µg/mL.

`Cc1nc(N2CCOCC2)nc(N2CCC(C)CC2)c1[N+](=O)[O-]`: the kinetic solubility was 12.6 µg/mL (≈ 39.2 µM).

Turning to `C=CCOc1cccc(CNc2cccc(C(=O)O)c2)c1`, the solubility (kinetic) was > 42.5 µg/mL.

`COc1cc([N+](=O)[O-])ccc1NC(=S)NC(=O)CC(C)(C)C` displayed a solubility (kinetic) of 0.3 µg/mL (≈ 0.922 µM).

As for `O=C(NCc1c[nH]c2ccccc12)c1ccccc1`, the solubility (kinetic) was > 37.5 µg/mL.

`C#CCN(CC=C)C(=O)c1ccc2nc(C3CCCCC3)oc2c1` yielded a kinetic solubility of 43.5 µg/mL (≈ 135 µM).

Regarding `CNc1snc(C)c1C(=O)OCC(=O)N(C)Cc1ccccc1`, the solubility (kinetic) amounted to 49.8 µg/mL (≈ 149 µM).

`Cn1cc(C(=O)C(=O)N2CCc3ccccc32)c2ccccc21` gave a kinetic solubility of 0.8 µg/mL (≈ 2.63 µM).

Turning to `c1ccc(CN2CCN(c3cnc4ccccc4n3)CC2)cc1`, the kinetic solubility was found to be 37.7 µg/mL (≈ 124 µM).

These data come from PubChem BioAssay AID1996.
